One may read the pIC50 as −log10 of the IC50, conventionally taken in molar units. As usually defined, the melting point is the temperature, or range, at which the solid turns liquid.

pIC50: −log10 of the molar value.

The record followed here is patent US6472389B1, “Pyrrolo[1,2-b] pyridazine derivatives having sPLA2 inhibitory effect” (Shionogi & Co., Ltd., priority 1998, dated 2002).

Series [1] deals with T1, recombinant human secretory phospholipase A2 (Homo sapiens, UniProt P14555).
T1 sequence (P14555 21-144): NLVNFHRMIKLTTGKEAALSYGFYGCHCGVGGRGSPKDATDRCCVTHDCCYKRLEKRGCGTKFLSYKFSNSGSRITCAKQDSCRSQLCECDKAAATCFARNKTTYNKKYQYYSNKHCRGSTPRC
Kind of series: Inhibition test of human secretory phospholipase A2 (chromogenic assay, 96 well microtiterplate). The series is classed as biochemical. Particulars: sPLA2 50 ng/well, 40° C., 30 minutes, OD 405 nm, substrate 1,2-bis(heptanoylthio)-1,2-dideoxy-sn-glycero-3-phospholylcholine. The source says: Inhibition Test of Human Secretory Phospholipase A2
In order to identify and evaluate an inhibitor of recombinant human secretory phospholipase A2, the following chromogenic assay is utilized. The assay herein has been applied for high volume screening wherein 96 well microtiterplate is used. A general explanation for such assay is described in “Analysis of Human Synovial Fluid Phospholipase A2 on Short Chain Phosphatidylcholine-Mixed Micelles: Development of a Spectrophotometric Assay Suitable for a Micortiterplate Reader” (Analytical Biochemistry, 204, pp 190-197, 1992 by Laure. J. Reynolds. Lori L. Hughes and Edward A. Dennis: the disclosure of which is incorporated herein for reference.
Bovine Serum Albumin (fatty acid free) (1 g/L) (Sigma A-7030)
pH 7.5 (adjusted with NaOH)
pH 4.5 (adjusted with acetic acid)
1 mg of sPLA2 is dissolved in 1 ml of an enzyme buffer. Thereafter, the solution is maintained at 4° C.
In the assay, 5 μl of the solution is diluted with 1995 μl of the reaction buffer to be used.
198 mg of 5,5′-dithiobis-2-[…] (manufactured by Wako Pure Chemicals) is dissolved in 100 ml of H2O
100 mg of racemic 1,2-bis(heptanoylthio)-1,2-dideoxy-sn-glycero-3-phospholylcholine is dissolved in 1 ml of chloroform.
624.9 mg of Triton-X 100 is dissolved in the reaction buffer.
Enzyme Reaction: for 1 plate of Microtiterplate
1) 0.106 ml of the substrate solution is put in a centrifugal tube, and nitrogen gas is jetted to remove the solvent. 0.54 ml of Triton-X 100 is added thereto, the mixture is stirred, thereafter it is sonified in a bath type sonification to dissolve. To the resulting product are added 17.8 m1l of the reaction buffer and 0.46 ml of DTNB, and 0.18 ml each of the admixture is poured to wells of the 96 well microtiterplate.
2) 10 μl of a test compound (or solvent blank) are added in accordance with alignment of plates which has been previously set.
3) Incubation is effected at 40° C. for 15 minutes.
4) 20 μl of an enzyme solution (sPLA2) which has been previously diluted (50 ng/well) are added to start reaction (40° C., 30 minutes).
5) Changes in absorbancy for 30 minutes are measured by a plate reader, and inhibition activity was calculated (OD: 405 nm).
6) IC50 was determined by plotting log concentration with respect to inhibition values within 10% to 90% inhibiting range.

For `CCc1c(C(=O)C(N)=O)c2c(OCC(=O)OCc3ccccc3)cc(CN3CCCC3)nn2c1Cc1ccccc1` [Compound I-29], the melting point lay within 185 to 186 °C. For the same molecule, in series [1], the pIC50 is 5.82.
On to `CCc1c(C(=O)C(N)=O)c2c(OCC(=O)O)cc(C)nn2c1Cc1ccc(F)cc1` [Compound I-22], for which the melting point lay in the range of 238 to 240 °C. In addition, in series [1], the pIC50 was 7.66.
On the same counts, the results for `CCc1c(C(=O)C(N)=O)c2c(OCC(=O)O)cc(C3CCCC3)nn2c1Cc1ccccc1` [Compound I-68] are 250 to 252 °C (dec.) and 7.60.
The corresponding values for `CCc1c(C(=O)C(N)=O)c2c(OCC(=O)OC)cc(C(C)C)nn2c1Cc1ccccc1` [Compound I-10] are 174 to 175 °C and 6.53.
On the same counts, the results for `Cc1cc(OCC(=O)OCCN2CCOCC2)c2c(C(=O)C(N)=O)c(C)c(Cc3ccccc3)n2n1` [Compound I-56] are 160 to 161 °C and 7.28.
In the case of `CCc1c(C(=O)C(N)=O)c2c(OCC(=O)O)cc(CSc3ccccc3)nn2c1Cc1ccccc1` [Compound I-58], the melting point is 226 to 228 °C (dec.). In addition, the pIC50 in series [1] was 8.05.
The corresponding values for `CCc1c(C(=O)C(N)=O)c2c(OCC(=O)O)cc(COc3ccc(OC)c(OC)c3)nn2c1Cc1ccccc1` [Compound I-77] are 204 to 206 °C and 8.00.
Regarding `CCc1c(C(=O)C(N)=O)c2c(OCC(=O)OC)cc(COc3ccc(F)cc3)nn2c1Cc1ccccc1` [Compound I-7], the melting point is 178 to 179 °C. In series [1], the pIC50 was 6.65.
Take `CCc1c(C(=O)C(N)=O)c2c(OCC(=O)OCc3ccccc3)cc(CN=[N+]=[N-])nn2c1Cc1ccccc1` [Compound I-50]: the melting point was in the range of 178 to 179 °C. Further, the pIC50 in series [1] is 6.28.
On the same counts, the results for `CCc1c(C(=O)C(N)=O)c2c(OCC(=O)OC)cc(-c3ccc4c(c3)OCO4)nn2c1Cc1ccccc1` [Compound I-39] are 245 to 247 °C (dec.) and 7.10.
On the same counts, the results for `CCc1c(C(=O)C(N)=O)c2c(OCC(=O)OC)cc(-c3ccccc3)nn2c1Cc1ccccc1` [Compound I-11] are 236 to 239 °C and 7.17.
On the same counts, the results for `CCc1c(C(=O)C(N)=O)c2c(OCC(=O)OC)cc(-c3ccc(OC)cc3)nn2c1Cc1ccccc1` [Compound I-34] are 215 to 217 °C (dec.) and 7.24.
For `CCc1c(C(=O)C(N)=O)c2c(OCC(=O)O)cc(CN3C(=O)CCC3=O)nn2c1Cc1ccccc1` [Compound I-79], the melting point is 210 to 212 °C (dec.). In addition, the negative-log IC50 (pIC50) in series [1] was 6.33.
On the same counts, the results for `CCc1c(C(=O)C(N)=O)c2c(OCC(=O)OC)cc(C3CCCCC3)nn2c1Cc1ccccc1` [Compound I-37] are 207 to 209 °C (dec.) and 6.67.
The corresponding values for `CCCc1cc(OCC(=O)OC)c2c(C(=O)C(N)=O)c(CC)c(Cc3ccccc3)n2n1` [Compound I-9] are 204 to 206 °C and 6.78.
On the same counts, the results for `Cc1cc(OCC(=O)O)c2c(C(=O)C(N)=O)c(C)c(Cc3ccc(-c4ccccc4)cc3)n2n1` [Compound I-83] are 271 to 276 °C (dec.) and 7.08.
In turn, `CCc1c(C(=O)C(N)=O)c2c(OCC(=O)OC)cc(COc3ccc(OC)c(OC)c3)nn2c1Cc1ccccc1` [Compound I-47] showed a melting point of 176 to 179 °C. Further, in series [1], the pIC50 is 6.21.
Take `COC(=O)COc1cc(CSC)nn2c(Cc3ccccc3)c(C)c(C(=O)C(N)=O)c12` [Compound I-43]: the melting point fell in the range of 210 to 211 °C. In addition, the pIC50 in series [1] is 6.81.
For the molecule `CCc1c(C(=O)C(N)=O)c2c(OCC(=O)O)cc(-c3ccc(F)cc3)nn2c1Cc1ccccc1` [Compound I-62], the melting point was 245 to 248 °C (dec.). Besides, the negative logarithm of the IC50 (pIC50) in series [1] is 7.92.
In turn, `CCc1c(C(=O)C(N)=O)c2c(OCC(=O)OC)cc(COc3ccc(C)cc3)nn2c1Cc1ccccc1` [Compound I-48] yielded a melting point of 191 to 192 °C. In addition, in series [1], the negative-log IC50 (pIC50) is 6.68.
On the same counts, the results for `COC(=O)COc1cc(-c2ccccc2)nn2c(Cc3ccccc3)c(C)c(C(=O)C(N)=O)c12` [Compound I-45] are 251 to 252 °C and 7.52.
The corresponding values for `CCc1c(C(=O)C(N)=O)c2c(OCC(=O)O)cc(COc3ccccc3)nn2c1Cc1ccccc1` [Compound I-57] are 218 to 220 °C (dec.) and 8.15.
On the same counts, the results for `CCCc1cc(OCC(=O)O)c2c(C(=O)C(N)=O)c(C)c(Cc3ccccc3)n2n1` [Compound I-71] are 204 to 205 °C and 8.10.
In the case of `CCc1c(C(=O)C(N)=O)c2c(OCC(=O)OC)cc(C)nn2c1Cc1ccccc1-c1ccc(F)cc1` [Compound I-54], the melting point was in the range of 190 to 192 °C. Also, the negative logarithm of the IC50 (pIC50) in series [1] is 6.83.
For the molecule `CCc1c(C(=O)C(N)=O)c2c(OCC(=O)O)cc(-c3ccccc3)nn2c1Cc1ccccc1F` [Compound I-25], the melting point lay in the range of 252 to 254 °C. In addition, the pIC50 in series [1] was 8.22.
In the case of `CCc1c(C(=O)C(N)=O)c2c(OCC(=O)O)cc(C(C)C)nn2c1Cc1ccccc1` [Compound I-20], the melting point is 234 to 236 °C (dec.). Besides, the negative-log IC50 (pIC50) in series [1] was 7.72.
Regarding `CCc1c(C(=O)C(N)=O)c2c(OCC(=O)O)cc(C)nn2c1Cc1ccccc1-c1ccccc1` [Compound I-65], the melting point is 218 to 219 °C (dec.). Moreover, the pIC50 in series [1] was 8.15.
On the same counts, the results for `CCc1c(C(=O)C(N)=O)c2c(OCC(=O)OC)cc(C3CCCC3)nn2c1Cc1ccccc1` [Compound I-38] are 160 to 162 °C (dec.) and 6.64.
`CCCc1cc(OCC(=O)OC)c2c(C(=O)C(N)=O)c(C)c(Cc3ccccc3)n2n1` [Compound I-41] displayed a melting point of 210 to 211 °C. Besides, the pIC50 in series [1] is 7.19.
As to `CCc1cc(OCC(=O)O)c2c(C(=O)C(N)=O)c(CC)c(Cc3ccccc3)n2n1` [Compound I-18], the melting point was 223 to 225 °C (dec.). Moreover, the pIC50 in series [1] is 8.00.
For `CCc1c(C(=O)C(N)=O)c2c(OCC(=O)O)cc(-c3ccc4c(c3)OCO4)nn2c1Cc1ccccc1` [Compound I-69], the melting point was 240 to 243 °C (dec.). In addition, the pIC50 in series [1] is 8.10.
On the same counts, the results for `Cc1cc(OCC(=O)O)c2c(C(=O)C(N)=O)c(C)c(Cc3ccccc3-c3ccc(F)cc3)n2n1` [Compound I-82] are 242 to 244 °C (dec.) and 7.03.
As for `CCc1c(C(=O)C(N)=O)c2c(OCC(=O)O)cc(C)nn2c1Cc1ccccc1-c1ccc(F)cc1` [Compound I-84], the melting point was 214 to 216 °C (dec.). The pIC50 in series [1] is 8.10.
`CCc1c(C(=O)C(N)=O)c2c(OCC(=O)OC)cc(-c3ccc(F)cc3)nn2c1Cc1ccccc1` [Compound I-33]: the melting point is 249 to 253 °C (dec.). Moreover, the pIC50 in series [1] is 7.14.
On the same counts, the results for `Cc1c(C(=O)C(N)=O)c2c(OCC(=O)O)cc(Cc3ccccc3)nn2c1Cc1ccccc1` [Compound I-72] are 245 to 247 °C (dec.) and 8.05.
On the same counts, the results for `CCc1c(C(=O)C(N)=O)c2c(OCC(=O)OC)cc(C)nn2c1Cc1ccc(F)cc1` [Compound I-12] are 252 to 254 °C and 6.13.
On the same counts, the results for `CCc1c(C(=O)C(N)=O)c2c(OCC(=O)OC)cc(C)nn2c1Cc1ccccc1-c1ccccc1` [Compound I-35] are 187 to 189 °C and 6.95.
Turning to `CCc1c(C(=O)C(N)=O)c2c(OCC(=O)O)cc(-c3ccccc3)nn2c1Cc1ccc(F)cc1` [Compound I-23], the melting point was 250 to 252 °C. Also, in series [1], the negative logarithm of the IC50 (pIC50) is 8.15.
The corresponding values for `COC(=O)COc1cc(C)nn2c(Cc3ccccc3-c3ccc(F)cc3)c(C)c(C(=O)C(N)=O)c12` [Compound I-52] are 194 to 196 °C and 7.03.
`Cc1cc(OCC(=O)O)c2c(C(=O)C(N)=O)c(C)c(Cc3ccccc3)n2n1` [Compound I-16]: the melting point is 271 to 272 °C (dec.). Moreover, in series [1], the pIC50 is 7.92.
